Test results reported in patent US20110288052A1, “NOVEL COMPOUNDS, PHARMACEUTICAL COMPOSITIONS CONTAINING SAME, AND METHODS OF USE FOR SAME” (priority 2008, published 2011).
≈ marks a conversion by molar mass, not a printed value.

Assays:
Weight loss screen = format: in vivo, Balb/C mice; conditions: 60 mg/kg intraperitoneally
Procedure: Weight Loss Screen Balb/C mice (Jackson Labs) are utilized for the initial weight loss screening. Animals are housed in temperature and 12 hour day/night cycle rooms and fed mouse chow and water ad lib. Three mice are utilized for each compound tested with vehicle controls in triplicate per experiment. For the experiments, mice are housed separately for each compound tested three mice to a cage. Compounds are diluted in DMSO at 10 mg/ml and mice are injected intraperitoneally with 60 mg/kg in approximately 100 μl of DMSO or with vehicle alone. Mice are observed and weighed daily; average weights and standard errors are computed with Excel (Microsoft). The experiment continues until treated animals reach their pretreatment weights.

[1] = system: MCF-7 human breast cancer cells; assay: XTT cytotoxicity assay, MCF-7 (M); format: cell-based; conditions: MCF7, MCF-7, 72 hours
Procedure: XTT Cytotoxicity Assay The XTT assay is a non-radioactive alternative for the [^51Cr] release cytotoxicity assay. XTT is a tetrazolium salt that is reduced to a formazan dye only by metabolically active, viable cells. The reduction of XTT is measured spectrophotometrically as OD490-OD650. To measure the cytotoxicity of specific compounds against cancer cells, 9×10^3 MCF-7 human breast cancer cells (shown in the tables as “(M)”), obtained from the American Type Culture Collection are plated per well in 96 well plates in DMEM medium with 10% fetal bovine serum, insulin, penicillin, and streptomycin. Following overnight culture at 37° C. and 5% CO2, the compounds to be tested, dissolved in DMSO, are added to the wells in 1 μl volume at the following concentrations: 80, 40, 20, 10, 5, 2.5, 1.25, and 0.625 μg/ml in triplicate. Additional concentrations are tested if required. 1 μl of DMSO is added to triplicate wells are the vehicle control. C75 is run at 40, 20, […], and 5 μg/ml in triplicate as positive controls. After 72 hours of incubation, cells are incubated for 4 hours with the XTT reagent as per manufacturer's instructions (Cell Proliferation Kit II (XTT) Roche). Plates are read at OD490 and OD650 on a Molecular Devices SpectraMax Plus Spectrophotometer. Three wells containing the XTT reagent without cells serve as the plate blank. XTT data are reported as OD490-OD650. Averages and standard error of the mean are computed using SOFTmax Pro software (Molecular Dynamics). The IC50 for the compounds is defined as the concentration of drug leading to a 50% reduction in OD490-OD650 compared to controls. The OD490-OD650 are computed by the SOFTmax PRO software (Molecular Devices) for each compound concentration. IC50 is calculated by linear regression, plotting the FAS activity as percent of control versus drug concentrations. Linear regression, best-fit line, r^2, and 95% confidence intervals are determined using Prism Version 3.0 (Graph Pad Software).

OVCAR3 cells = assay: XTT cytotoxicity assay, OVCAR3 (OV); format: cell-based; conditions: Homo sapiens
Procedure: (§1) XTT Cytotoxicity Assay The XTT assay is a non-radioactive alternative for the [^51Cr] release cytotoxicity assay. XTT is a tetrazolium salt that is reduced to a formazan dye only by metabolically active, viable cells. The reduction of XTT is measured spectrophotometrically as OD490-OD650. To measure the cytotoxicity of specific compounds against cancer cells, 9×10^3 MCF-7 human breast cancer cells (shown in the tables as “(M)”), obtained from the American Type Culture Collection are plated per well in 96 well plates in DMEM medium with 10% fetal bovine serum, insulin, penicillin, and streptomycin. Following overnight culture at 37° C. and 5% CO2, the compounds to be tested, dissolved in DMSO, are added to the wells in 1 μl volume at the following concentrations: 80, 40, 20, 10, 5, 2.5, 1.25, and 0.625 μg/ml in triplicate. Additional concentrations are tested if required. 1 μl of DMSO is added to triplicate wells are the vehicle control. C75 is run at 40, 20, […], and 5 μg/ml in triplicate as positive controls. After 72 hours of incubation, cells are incubated for 4 hours with the XTT reagent as per manufacturer's instructions (Cell Proliferation Kit II (XTT) Roche). Plates are read at OD490 and OD650 on a Molecular Devices SpectraMax Plus Spectrophotometer. Three wells containing the XTT reagent without cells serve as the plate blank. XTT data are reported as OD490-OD650. Averages and standard error of the mean are computed using SOFTmax Pro software (Molecular Dynamics). The IC50 for the compounds is defined as the concentration of drug leading to a 50% reduction in OD490-OD650 compared to controls. The OD490-OD650 are computed by the SOFTmax PRO software (Molecular Devices) for each compound concentration. IC50 is calculated by linear regression, plotting the FAS activity as percent of control versus drug concentrations. Linear regression, best-fit line, r^2, and 95% confidence intervals are determined using Prism Version 3.0 (Graph Pad Software). The test was also run against OVCAR3 cells (“OV”), and HCT116 cells (“H”).

[2] = Solubility problem noted during the assays; format: physicochemical; conditions: for solubility: read-out: Sol Prob (solubility problem at concentration)
HCT116 cells = assay: XTT cytotoxicity assay, HCT116 (H); format: cell-based; conditions: Homo sapiens, HCT-116
Procedure: as §1

Solubility remark on FAS IC50 ([2]; FAS assay) | solubility [2] [µg/mL] | SMILES | Weight Loss (Weight loss screen; day 1) | IC50 [1] [µg/mL] | IC50 (OVCAR3 cells; OVCAR-3) [µg/mL] | IC50 (HCT116 cells) [µg/mL] | Weight Loss (Weight loss screen; day 4) | IC50 (OVCAR3 cells; OVCAR-3, unit given as ml) [µg/mL]
Limited by Solubility | – | CCCCCCCCC1(C)SC(=O)C=C1OCC(=O)Nc1ccc(Cl)cc1 (centres unmarked) | 60 mg/kg: 0.2% (day 1) | 5.2 ± 2 (≈ 12.7 µM) | 9.2 ± 5 (≈ 22.4 µM) | 5.9 ± 2.7 (≈ 14.4 µM) | – | –
– | – | CCCCCCCCC1(C)SC(=O)C=C1OCC(=O)Nc1ccc(OC)cc1 (centres unmarked) | – | 9.7 (≈ 23.9 µM) | 17.8 (≈ 43.9 µM) | 15.6 (≈ 38.5 µM) | – | –
– | – | CCCCCCCCOc1ccc(NC(=O)COC2=CC(=O)SC2(C)CCCCCCCC)cc1 (centres unmarked) | – | > 80 | 67 (≈ 133 µM) | > 80 | – | –
– | – | CCCCCCCCC1(C)SC(=O)C=C1OCC(=O)Nc1ccc(-c2cccs2)cc1 (centres unmarked) | – | > 80 | > 80 | > 80 | – | –
– | – | CCCCCCCCC1(C)SC(=O)C=C1OCC(=O)Nc1ccc(Oc2ccc(Cl)cc2)cc1 (centres unmarked) | – | 3.1 (≈ 6.17 µM) | 5 (≈ 9.96 µM) | 6.3 (≈ 12.5 µM) | 60 mg/kg: 3.1% (day 4) | –
– | – | CCCCCCCCC1(C)SC(=O)C=C1OCC(=O)Nc1ccc(C(F)(F)F)cc1 (centres unmarked) | – | 2.2 (≈ 4.96 µM) | 4 (≈ 9.02 µM) | 4.8 (≈ 10.8 µM) | – | –
– | – | CCCCCCCCC1(C)SC(=O)C=C1OCC(=O)Nc1ccc(OC(F)(F)F)cc1 (centres unmarked) | 60 mg/kg: 2.2% (day 1) | 1.8 (≈ 3.92 µM) | 3.3 (≈ 7.18 µM) | 3.5 (≈ 7.62 µM) | – | –
– | – | CCCCCCCCC1(C)SC(=O)C=C1OCC(=O)Nc1ccc2c(c1)OCO2 (centres unmarked) | – | 8.2 (≈ 19.5 µM) | 9.3 (≈ 22.2 µM) | 14.8 (≈ 35.3 µM) | – | –
– | – | CCCCCCCCC1(C)SC(=O)C=C1OCC(=O)Nc1ccccc1N1CCCCC1 (centres unmarked) | – | 18.6 (≈ 40.6 µM) | 15.5 (≈ 33.8 µM) | 13.1 (≈ 28.6 µM) | – | –
– | – | CCCCCCCCC1(C)SC(=O)C=C1OCC(=O)Nc1ccccc1 (centres unmarked) | – | 6.2 (≈ 16.5 µM) | 12.1 (≈ 32.2 µM) | 7.1 (≈ 18.9 µM) | – | –
– | – | CCCCCCCCC1(C)SC(=O)C=C1OCC(=O)Nc1ccc(Cl)cc1C(F)(F)F (centres unmarked) | – | 9.6 (≈ 20.1 µM) | 24 (≈ 50.2 µM) | 14 (≈ 29.3 µM) | – | –
– | 80 (≈ 180 µM) | CCCCCCCC[C@]1(C)SC(=O)C=C1OCC(=O)Nc1ccccc1C(F)(F)F | – | 17.6 (≈ 39.7 µM) | 24.1 (≈ 54.3 µM) | 15.6 (≈ 35.2 µM) | – | –
– | – | CCCCCCCC[C@]1(C)SC(=O)C=C1OCC(=O)Nc1ccccc1OC(F)(F)F | – | > 80 | > 80 | 78.8 (≈ 171 µM) | – | –
– | 80 (≈ 180 µM) | CCCCCCCCC1(C)SC(=O)C=C1OCC(=O)Nc1cccc(C(F)(F)F)c1 (centres unmarked) | – | 5.9 (≈ 13.3 µM) | 11 (≈ 24.8 µM) | 7.6 (≈ 17.1 µM) | – | –
– | 40 (≈ 87 µM) | CCCCCCCCC1(C)SC(=O)C=C1OCC(=O)Nc1cccc(OC(F)(F)F)c1 (centres unmarked) | – | 6.4 (≈ 13.9 µM) | 11.6 (≈ 25.2 µM) | 8 (≈ 17.4 µM) | – | –
– | 40 (≈ 94.9 µM) | CCCCCCCCC1(C)SC(=O)C=C1OCC(=O)Nc1ccccc1SC (centres unmarked) | – | 26.9 (≈ 63.8 µM) | 43.8 (≈ 104 µM) | 31.4 (≈ 74.5 µM) | – | –
– | 40 (≈ 94.9 µM) | CCCCCCCCC1(C)SC(=O)C=C1OCC(=O)Nc1ccc(SC)cc1 (centres unmarked) | – | 7.9 (≈ 18.7 µM) | 16.9 (≈ 40.1 µM) | 11.5 (≈ 27.3 µM) | – | –
– | 40 (≈ 90 µM) | CCCCCCCCC1(C)SC(=O)C=C1OCC(=O)Nc1ccc(Cl)cc1Cl (centres unmarked) | – | 16.8 (≈ 37.8 µM) | – | 13.1 (≈ 29.5 µM) | – | 64.5 (≈ 145 µM)
– | 80 (≈ 203 µM) | CCCCCCCCC1(C)OC(=O)C=C1OCC(=O)Nc1ccc(Cl)cc1 (centres unmarked) | – | 6 (≈ 15.2 µM) | 9.2 (≈ 23.4 µM) | 4.8 (≈ 12.2 µM) | – | –
